Data published in doi:10.1101/2021.11.05.467508v1, “Biochemical analysis of deacetylase activity of rice sirtuin OsSRT1, a class IV member in plants” (biorxiv, 2021).
Like-named read-outs stand apart in the source and are kept apart here.

Legend:
OsSRT1 (FL) [1] = biological target: T1, OsSRT1 (FL) (Oryza sativa, UniProt B8ARK7); assay: dot blot deacetylation assay, H3K9Ac; type: biochemical
T1 construct: gene SRT1; full length 1-483, cloned from rice leaf cDNA into pET30a, His-tagged, monomer by SEC
T1 sequence (B8ARK7 1-483): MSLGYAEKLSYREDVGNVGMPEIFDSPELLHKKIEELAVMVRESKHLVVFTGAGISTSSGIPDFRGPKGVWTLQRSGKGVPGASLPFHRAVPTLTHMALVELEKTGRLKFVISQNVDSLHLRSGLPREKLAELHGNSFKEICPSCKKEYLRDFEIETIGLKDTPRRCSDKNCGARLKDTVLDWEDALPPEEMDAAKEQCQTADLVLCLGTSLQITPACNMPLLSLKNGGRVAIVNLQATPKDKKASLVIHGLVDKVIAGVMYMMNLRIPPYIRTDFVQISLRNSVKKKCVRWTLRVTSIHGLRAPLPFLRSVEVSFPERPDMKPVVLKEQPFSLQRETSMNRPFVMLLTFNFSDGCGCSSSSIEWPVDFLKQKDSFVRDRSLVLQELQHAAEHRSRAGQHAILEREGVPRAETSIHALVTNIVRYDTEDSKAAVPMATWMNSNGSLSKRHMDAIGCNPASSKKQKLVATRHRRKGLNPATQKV

OsSRT1 (FL) [2] = biological target: T1, OsSRT1 (FL); assay: dot blot deacetylation assay, H3K9Ac; type: biochemical; remark: listed apart in the source

SMILES | IC50 (OsSRT1 (FL) [2]) [µM] | other results
Oc1ccc(/C=C/c2cc(O)cc(O)c2)cc1 [resveratrol] |  | EC50 (OsSRT1 (FL) [1]): 236 ± 12 µM
NC(=O)c1cccnc1 [NAM] | 147 ± 21 | 
CCCC(=O)O [sodium butyrate] | 98 ± 15 | 
Nc1ncnc2c1ncn2[C@@H]1O[C@H](COP(=O)(O)OP(=O)(O)OC[C@H]2OC(O)[C@H](O)[C@@H]2O)[C@@H](O)[C@H]1O (stereo partly shown) [ADP-ribose] |  | IC50 (OsSRT1 (FL) [2]; H3K9Ac deacetylation, product inhibition): 25 ± 2 µM
